US20250268844A1, “ANTICANCER AGENTS BASED ON CYCLOPENTENONES” (UNIVERSITY OF CRETE, priority 2022, published 2025)
Entries after “also recorded” stand apart in the source; their conditions may differ.

Assays:
[1] = tested on: 2780CP, a cis-platin-resistant derivative of A2780; assay: MTT conversion assay, 2780CP; assay type: cell-based, human
Experimental: (§1) In particular, Enone-1 and Enone-2 were tested for cytotoxic activity in 17 cell lines representing a broad spectrum of human tumors. They include human colorectal carcinoma (Caco2, RKO, HCT15, HT29), liver (HepG2), lung (A549), ovarian carcinoma (A2780, 2780CP, AGE60, SKOV3), anaplastic large cell lymphoma (Mac1 and Mac2a), breast carcinoma (MDA-MB-231), cervical (HeLa), bladder cancer (VM-CUB-1), melanoma (BRO), and multiple myeloma (MR20).
(§2) Each assay was performed in triplicate and repeated in 2-3 independent experiments. Specifically, to measure cell survival, 20 μl of 10 mg/ml MTT (3-([…])-2,5-diphenyl tetrazolium bromide; Sigma) was added to each well and the plates were incubated at 37° C. in 5% CO2 for 3 hours. The supernatant was removed and the formed crystals were dissolved in 200 μl dimethyl sulphoxide. The plates were then analysed at 450 nm on a plate reader. Growth inhibition (reduction in survival) was calculated by expressing the differences in optical densities between treatment wells and control wells as a percentage of the control.
Resistance to platinum-based chemotherapy is a major problem in oncology that impacts therapeutic options and limits patient survival. This is relevant to several types of malignancy, including ovarian cancer where platinum resistance frequently occurs. As Enone-1 and 2 show efficacy in reducing survival of A2780 ovarian carcinoma cells, the drugs were also tested in 2780CP, a cis-platin-resistant derivative of A2780 [13].

[2] = tested on: SKOV3 ovarian carcinoma cells; assay: MTT conversion assay, SKOV3; assay type: cell-based, human; details: Homo sapiens, SK-OV-3, 48 hrs treatment
Experimental: as §1, §2

[3] = tested on: AGE60 ovarian carcinoma cells; assay: MTT conversion assay, AGE60; assay type: cell-based, human; details: Homo sapiens, Ovarian carcinoma cell, 48 hrs treatment
Experimental: as §1, §2

[4] = tested on: Caco-2 colorectal carcinoma cells; assay: MTT conversion assay, Caco-2; assay type: cell-based; details: Homo sapiens, Caco-2, colon, 48 hrs treatment
Experimental: as §1, §2

[5] = tested on: HepG2 liver cells; assay: MTT conversion assay, HepG2; assay type: cell-based, human; details: Homo sapiens, 48 hrs treatment
Experimental: as §1, §2

[6] = tested on: Mac2a anaplastic large cell lymphoma cells; assay: MTT conversion assay, Mac2a; assay type: cell-based; details: Homo sapiens, ALCL, 48 hrs treatment
Experimental: as §1, §2

[7] = tested on: A2780 ovarian carcinoma cells; assay: Clonogenic assay; assay type: cell-based, human; details: 12 hours treatment with 2.5 μM or 5.0 μM, colonies on day 10, compared with cis-platin
Source text: The long-term effects of Enone-2 on tumor cell survival were examined by using clonogenic assays which assess the ability of single cells to survive and reproduce to form colonies. […] The colonies formed on day 10 were visualized by staining with crystal violet following cell fixation and enumerated.

[8] = tested on: A2780 ovarian carcinoma cells; assay: Cell cycle analysis by propidium iodide flow cytometry; assay type: cell-based, human; details: 2.5 μM or 5 μM for 24 hours
Experimental: The effect of Enone-2 on cell cycle progression was tested to determine if it causes cell cycle arrest, in addition to inducing cell death. To this end, A2780 ovarian carcinoma cells were treated with 2.5 μM or 5 μM Enone-2 for 24 hours, cells were detached, fixed in 1% Neutral Buffered Formalin and stained with 5 μg/ml propidium iodide. Cell suspensions were next analyzed for fluorescence intensities (DNA content) by quantitative flow cytometry.

[9] = tested on: mdm2, p21, bax and bbc3/puma; assay: RT-qPCR of p53 target genes in A2780 cells; assay type: cell-based, human; details: 2.5 μM
Experimental: FIG. 8: Enones induce the p53 pathway. […] Cell lysates were analyzed for p53 and GAPDH (loading control). (B) A2780 cells were cultured in the presence or absence of 2.5 μM for the indicated time points before being analyzed for p53 and GAPDH levels. (C) Treatment of A2780 cells with 2.5 μM Enone-2 results in the up-regulation of p53-regulated genes (*p<0.05; **p<0.01; ***p<0.001, n=4). (D) Induction of p53 accumulation in AGE60 ovarian carcinoma cells following 6 or 14 hr exposure to 2.5 μM Enone-2. (E) Enone-1 induces the p53 pathway in A2780 cells which were cultured in the presence of 2.5 μM of the drug and analyzed as in (B). (F) Treatment of A2780 cells with 2.5 μM Enone-2 results in the up-regulation of p53-regulated genes (*p<0.05; **p<0.01; ***p<0.001, n=3).
The effects of Enone-2 on p53 and p53-dependent transcription of cell cycle and cell death-associated genes was confirmed by immunoblotting for p53 and by reverse transcription qPCR (RT-qPCR) for mdm2, p21, bax and bbc3/puma, established p53 target genes.

[10] = tested on: p53; assay: siRNA knockdown of Chek2 or Rpl11 and drug-induced p53 activation in A2780 cells; assay type: cell-based, human; details: A2780 transiently transfected with siRNAs
Experimental: FIG. 9. […] A2780 cells were cultured for 6 hrs in the presence of drug concentrations as indicated. (B) Effects of siRNA targeting RPL11 (siRPL11), Chek2 (siChek2) or the unrelated luciferase (Luci) genes on RPL11 and Chek2 mRNA levels quantified by RT-PCR. (C) Effects of siRpl11 on Enone-2 and oxaliplatin (OXA)-induced p53 activation. Expression levels relative to GAPDH are indicated; untreated controls (CNT) were given the arbitrary value of 1. […] Expression levels relative to GAPDH are indicated; untreated controls (CNT) were given the arbitrary value of 1.
To further validate this observation, A2780 cells were transiently transfected with siRNAs targeting Chek2 which is required for DDR-induced p53, or Rpl11 which is required for RS-mediated p53 activation. The efficacy and specificity of the knockdowns were confirmed by RT-qPCR (FIG. 9B).

[11] = tested on: 2780CP ovarian carcinoma cells; assay: Combination with bortezomib in 2780CP cells; assay type: cell-based, human; details: 2 hours bortezomib pre-treatment, then 48 hour co-culture with Enone-2
Experimental: The arrows in the microphotographs of (A) depict 2780CP cells with apoptotic morphology following treatment with 5 nM bortezomib in combination with 0.5 μM Enone-2.
Proteasome inhibitors have been reported to enhance platinum-induced toxicity in cis-platin-resistant ovarian cancer cells. […] To address this hypothesis, 2780CP ovarian carcinoma cells were pre-treated for 2 hours with different concentrations of the proteasomal inhibitor bortezomib, a drug in clinical use, followed by a 48 hour co-culture with Enone-2.

IC50 ([1]; Homo sapiens, A2780, 2780CP, ovarian, cis-platin-resistant, 48 hrs treatment, MTT): 0.7 µM
IC50 [2]: 0.3 µM
IC50 [3]: 1.2 µM
IC50 [4]: 1.8 µM
IC50 [5]: 3 µM
IC50 [6]: 2.3 µM
SMILES: C[C@@]1(O)C=CC(=O)[C@H]1c1ccc(F)c2ccccc12 (stereo in doubt) [Enone-2, 5-(4-fluoronaphthalen-1-yl)-4-hydroxy-4-methylcyclopent-2-en-1-one]
sensitivity of 2780CP cells compared with cis-platin-sensitive A2780 cells ([1]; MTT conversion assays): nearly as sensitive; also recorded: remain sensitive
number of colonies formed [7]: lower than the equivalent dose of cis-platin
cell cycle progression (DNA content) [8]: accumulation of cells in the G2/M phase of the cell cycle in a concentration dependent manner
mdm2, p21, bax and bbc3/puma mRNA (p53-dependent gene expression) [9]: time-dependent upregulation
effect of Chek2 or Rpl11 siRNA knockdown on drug-induced p53 activation [10]: only Rpl11 knockdown that affected Enone-2 mediated p53 activation
cytotoxicity of combination with bortezomib compared to each agent alone [11]: augmentation of cytotoxicity compared to each agent alone; also recorded: higher cytotoxicity in relation to each agent alone
